The values that follow are results of earlier work, collected in patent US20240317750A1, “An Efficient Process for the Synthesis of Methylliberine and Polymorphs Thereof” (Fertis India Pvt. Ltd., priority 2021, published 2024).

The conditions of this data set: background statement, available toxicological information; no test described.

The structures appear in SMILES notation.

As to `COc1nc2c(c(=O)n1C)n(C)c(=O)n2C` [methylliberine, 2-Methoxy-1,7,9-trimethyl-7,9-dihydro-1H-purine-6,8-dione], the genotoxicity result is recorded as “does not cause any genotoxicity”.
